Reference: US20240299382A1, “COMPOUNDS AND METHODS FOR DEGRADING RCOR1, LSD1, HDAC1 AND HDAC2 IN THE COREST” (University of Florida Research Foundation, Inc., priority 2021, published 2024)
“Also recorded” adds a separate entry of the source. Like-named read-outs stand apart in the source and are kept apart here.

How the values were obtained:
LSD1 = biological target: T1, LSD1 (Homo sapiens, UniProt O60341); test: Western blotting of protein levels in MCF7 cells; assay type: cell-based; conditions: for LSD1 protein level / degradation of LSD1: MCF7 cells; for LSD1 protein level: indicated concentrations, 14 hours; for degradation of LSD1: 10 μM, 6 hours, Western blotting
T1 construct: Cells were then lysed and subjected to Western blotting with antibodies against the indicated proteins; endogenous in cells; host or cells: MCF7
Method: (§1) […] Cells were pretreated with the proteasomal inhibitor MG132 (MG, 3 μM) or the neddylation inhibitor MLN4924 (MLN, 1 μM) for 2 hours. Cells were then lysed and subjected to Western blotting with antibodies against the indicated proteins. The levels of RCOR1 were normalized against that of tubulin and shown as % of DMSO control.
(§2) Cells were pretreated with the proteasomal inhibitor MG132 (MG, 3 μM) or the neddylation inhibitor MLN4924 (MLN, 1 μM) for 2 hours. Cells were then lysed and subjected to Western blotting with antibodies against the indicated proteins. The levels of RCOR1 and LSD1 were normalized against that of tubulin and shown as % of DMSO control.

RCOR1 = biological target: T2, RCOR1 (Homo sapiens, UniProt Q9UKL0); test: Western blotting of protein levels in MCF7 cells; assay type: cell-based; conditions: for RCOR1 protein level: indicated concentrations; for degradation of RCOR1: 10 μM, 6 hours, Western blotting
T2 construct: Cells were then lysed and subjected to Western blotting with antibodies against the indicated proteins; endogenous in cells; host or cells: MCF7
Method: as §1, §2

[1] = data from ref 80; cited from earlier work
[2] = mice, 50 mg/kg orally; cited from earlier work
HDAC1 = biological target: T3, HDAC1 (Homo sapiens, UniProt Q13547); test: Western blotting of protein levels in MCF7 cells; assay type: cell-based; conditions: for degradation of HDAC1: 10 μM, 6 hours, Western blotting
T3 construct: endogenous in cells; host or cells: MCF7
Method: (§3) MCF7 cells were exposed to DMSO or the indicated compounds (10 μM) for 6 hours. Cells were pretreated with the proteasomal inhibitor MG132 (MG, 3 μM) or the neddylation inhibitor MLN4924 (MLN, 1 μM) for 2 hours. Cells were then lysed and subjected to Western blotting with antibodies against the indicated proteins. The levels of RCOR1 were normalized against that of tubulin and shown as % of DMSO control.
as §3, with “DMSO, SR-4370 and other compounds at” for “DMSO or”, “concentrations” for “compounds (10 μM)”, “14” for “6”, “RCOR1 and LSD1” for “RCOR1”

HDAC2 = biological target: T4, HDAC2 (Homo sapiens, UniProt Q92769); test: Western blotting of protein levels in MCF7 cells; assay type: cell-based; conditions: for degradation of HDAC2: 10 μM, 6 hours, Western blotting
T4 construct: endogenous in cells; host or cells: MCF7
Method: as §3
as §3, with “DMSO, SR-4370 and other compounds at” for “DMSO or”, “concentrations” for “compounds (10 μM)”, “14” for “6”, “RCOR1 and LSD1” for “RCOR1”

[3] = system: MDA-MB-231 and T47D cells; test: Viability assay using CellTiter-Glo, four days; assay type: cell-based; conditions: SR-4370 compared to UF010
Method: (§4) MDA-MB-231 and T47D cells were treated with the indicated compounds for four days (FIG. 5A). Viability assays were done using CellTiter-Glo. Shown are normalized values vs. vehicle±SEM (n=3). IC50 values are calculated using Prism 6. Note that SR-3460 has no HDACi activity. Cells were seeded and then continuously treated with SR-4370 or UF010 at the indicated concentrations for 15 days. Colonies were fixed and stained (FIG. 5B).

HDACs = test: HDAC inhibition (HDACi activity); assay type: biochemical
[4] = system: MDA-MB-231 xenograft tumors; orthotopic EMT6 and 4T1 mouse breast tumors; test: In vivo efficacy in breast tumor models; conditions: mice bearing MDA-MB-231 xenograft, EMT6 or 4T1 tumors
Method: Female athymic mice bearing the MDA-MB-231 xenograft tumors were dosed with vehicle or SR-4370 (FIG. 3A). Tumor volumes and final tumor weights are plotted (average±SD). *: p<0.05, **: p<0.01 (FIGS. 3B and 3C). Female BALB/c mice bearing the orthotopic EMT6 (FIG. 3B) and 4T1 (FIG. 3C) mouse breast tumors were dosed with SR-4370 as in (FIG. 3A). At the endpoint, tumors were removed from euthanized mice and weighed. The tumor weight plots are shown (average±SD). The p values were calculated based on t test.

RCOR3 = test: Western blotting of protein levels in MCF7 cells; assay type: cell-based; conditions: 14 hours
Method: as §3, with “DMSO, SR-4370 and other compounds at” for “DMSO or”, “concentrations” for “compounds (10 μM)”, “14” for “6”, “RCOR1 and LSD1” for “RCOR1”

MTA2 = test: Western blotting of protein levels in MCF7 cells; assay type: cell-based; conditions: 14 hours
Method: as §3, with “DMSO, SR-4370 and other compounds at” for “DMSO or”, “concentrations” for “compounds (10 μM)”, “14” for “6”, “RCOR1 and LSD1” for “RCOR1”

LSD2 = test: Western blotting of protein levels in MCF7 cells; assay type: cell-based; conditions: 14 hours
Method: as §3, with “DMSO, SR-4370 and other compounds at” for “DMSO or”, “concentrations” for “compounds (10 μM)”, “14” for “6”, “RCOR1 and LSD1” for “RCOR1”

RBBP4 = test: Western blotting of protein levels in MCF7 cells; assay type: cell-based; conditions: 14 hours
Method: as §3, with “DMSO, SR-4370 and other compounds at” for “DMSO or”, “concentrations” for “compounds (10 μM)”, “14” for “6”, “RCOR1 and LSD1” for “RCOR1”

HDAC8 = biological target: T5, HDAC8 (Homo sapiens, UniProt Q9BY41); test: Western blotting of protein levels in MCF7 cells; assay type: cell-based; conditions: 14 hours
T5 construct: endogenous in cells; host or cells: MCF7
T5 sequence (Q9BY41 1-377): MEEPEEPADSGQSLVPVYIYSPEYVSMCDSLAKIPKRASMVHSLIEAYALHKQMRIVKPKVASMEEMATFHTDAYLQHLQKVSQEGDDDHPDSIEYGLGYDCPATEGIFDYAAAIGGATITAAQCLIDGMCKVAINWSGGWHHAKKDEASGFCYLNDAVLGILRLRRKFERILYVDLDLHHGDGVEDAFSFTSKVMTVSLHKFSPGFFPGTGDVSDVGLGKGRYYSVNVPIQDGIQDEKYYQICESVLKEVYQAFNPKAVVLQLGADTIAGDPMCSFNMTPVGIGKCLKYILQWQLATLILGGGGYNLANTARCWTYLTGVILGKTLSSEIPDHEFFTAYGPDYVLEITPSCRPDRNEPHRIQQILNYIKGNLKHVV
Method: as §3, with “DMSO, SR-4370 and other compounds at” for “DMSO or”, “concentrations” for “compounds (10 μM)”, “14” for “6”, “RCOR1 and LSD1” for “RCOR1”

RCOR2 = test: Western blotting of protein levels in MCF7 cells; assay type: cell-based; conditions: 14 hours
Method: as §3, with “DMSO, SR-4370 and other compounds at” for “DMSO or”, “concentrations” for “compounds (10 μM)”, “14” for “6”, “RCOR1 and LSD1” for “RCOR1”

HDAC3 = biological target: T6, HDAC3 (Homo sapiens, UniProt O15379); test: Western blotting of protein levels in MCF7 cells; assay type: cell-based; conditions: 14 hours
T6 construct: endogenous in cells; host or cells: MCF7
Method: as §3, with “DMSO, SR-4370 and other compounds at” for “DMSO or”, “concentrations” for “compounds (10 μM)”, “14” for “6”, “RCOR1 and LSD1” for “RCOR1”

BC cell lines = test: Colony formation, continuous treatment for 15 days; assay type: cell-based; conditions: continuous treatment 15 days, colonies; compared to UF010
Method: as §4

[5] = Blood chemistry tests in tumor-bearing athymic mice
[6] = Tolerability and body weights of tumor-bearing mice dosed with SR-4370
Method: Female BALB/c mice bearing the EMT6 tumors were dosed with vehicle or SR-4370 (50 mg/kg) via intraperitoneal injection.
(§5) In vivo tolerability of UF010, the first identified compound of the benzoylhydrazide HDACi class, was evaluated in mice. […] We conducted pilot experiments to evaluate PK parameters of UF010. As with the MTD experiment, mice were dosed orally at 80 mg/kg. Plasma samples were collected at various time points and the amount of UF010 was determined.

[7] = In vivo tolerability / MTD of UF010, oral dosing; conditions: mice, oral dosing up to 80 mg/kg
Method: as §5

[8] = PK parameters after oral dosing in mice; conditions: 80 mg/kg orally
Method: as §5

[9] = MCF7 cells pretreated with MLN4924 (1 μM) or MG132 (3 μM) for 2 hours
[10] = indicated concentrations, 14 hours
[11] = tumor-bearing athymic mice, average ± SD, n = 6
[12] = tumor-bearing mice at the endpoint

T4 sequence (Q92769 whole entry): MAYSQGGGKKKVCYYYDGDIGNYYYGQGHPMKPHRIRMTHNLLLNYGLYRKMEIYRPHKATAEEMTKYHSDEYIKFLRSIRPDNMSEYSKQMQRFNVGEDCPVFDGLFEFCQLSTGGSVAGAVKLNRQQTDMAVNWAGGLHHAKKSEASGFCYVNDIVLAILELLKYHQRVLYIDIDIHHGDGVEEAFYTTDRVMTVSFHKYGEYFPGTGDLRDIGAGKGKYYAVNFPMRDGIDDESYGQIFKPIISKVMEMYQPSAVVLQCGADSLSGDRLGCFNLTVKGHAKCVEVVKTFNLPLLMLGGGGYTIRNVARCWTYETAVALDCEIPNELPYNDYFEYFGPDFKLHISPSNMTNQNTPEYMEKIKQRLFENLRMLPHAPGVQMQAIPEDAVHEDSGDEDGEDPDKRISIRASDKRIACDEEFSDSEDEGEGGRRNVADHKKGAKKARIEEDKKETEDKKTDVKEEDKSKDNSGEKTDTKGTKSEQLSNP
T3 sequence (Q13547 whole entry): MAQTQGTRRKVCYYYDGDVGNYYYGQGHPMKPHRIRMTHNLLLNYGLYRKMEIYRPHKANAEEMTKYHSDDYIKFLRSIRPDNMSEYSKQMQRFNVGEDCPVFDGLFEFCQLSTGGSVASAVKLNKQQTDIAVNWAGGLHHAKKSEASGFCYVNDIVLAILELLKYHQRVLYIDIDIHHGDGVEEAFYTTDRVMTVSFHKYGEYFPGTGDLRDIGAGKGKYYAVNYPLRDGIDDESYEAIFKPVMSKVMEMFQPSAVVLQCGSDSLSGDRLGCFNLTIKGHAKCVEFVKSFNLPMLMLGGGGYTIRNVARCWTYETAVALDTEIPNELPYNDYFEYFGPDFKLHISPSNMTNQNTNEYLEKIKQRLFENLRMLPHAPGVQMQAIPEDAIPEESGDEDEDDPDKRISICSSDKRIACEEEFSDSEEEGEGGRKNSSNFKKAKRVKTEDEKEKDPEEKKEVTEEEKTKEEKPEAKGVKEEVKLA
T2 sequence (Q9UKL0 whole entry): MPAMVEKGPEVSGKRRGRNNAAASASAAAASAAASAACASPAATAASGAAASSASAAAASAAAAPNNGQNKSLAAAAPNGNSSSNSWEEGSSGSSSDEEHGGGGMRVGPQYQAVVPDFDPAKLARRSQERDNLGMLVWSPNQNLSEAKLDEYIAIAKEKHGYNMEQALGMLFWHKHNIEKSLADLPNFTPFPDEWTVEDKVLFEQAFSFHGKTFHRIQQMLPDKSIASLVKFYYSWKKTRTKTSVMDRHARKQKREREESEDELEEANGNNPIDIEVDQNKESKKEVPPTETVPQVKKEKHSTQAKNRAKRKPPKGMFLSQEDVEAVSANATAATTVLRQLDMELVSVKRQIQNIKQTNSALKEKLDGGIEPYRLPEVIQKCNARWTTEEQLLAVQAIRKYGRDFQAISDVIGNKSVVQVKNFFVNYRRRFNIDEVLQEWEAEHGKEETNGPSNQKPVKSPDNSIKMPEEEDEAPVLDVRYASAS
T6 sequence (O15379 whole entry): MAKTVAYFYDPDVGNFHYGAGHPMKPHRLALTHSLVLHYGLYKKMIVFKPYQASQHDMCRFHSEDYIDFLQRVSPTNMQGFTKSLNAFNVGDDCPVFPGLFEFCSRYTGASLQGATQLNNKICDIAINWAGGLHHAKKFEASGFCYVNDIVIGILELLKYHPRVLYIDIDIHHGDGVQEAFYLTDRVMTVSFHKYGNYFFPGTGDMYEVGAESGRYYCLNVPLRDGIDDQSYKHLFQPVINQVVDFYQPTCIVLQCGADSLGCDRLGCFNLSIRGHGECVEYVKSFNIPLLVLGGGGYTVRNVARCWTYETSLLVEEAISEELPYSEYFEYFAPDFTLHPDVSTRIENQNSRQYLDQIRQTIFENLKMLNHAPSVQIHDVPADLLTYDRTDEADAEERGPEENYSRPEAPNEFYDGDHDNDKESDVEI

O=C(/C=C/c1cccc(S(=O)(=O)Nc2ccccc2)c1)NO [belinostat, reference compound]
LSD1 protein level (LSD1): moderately increased | RCOR1 protein level (RCOR1; MCF7 cells, 14 hours): notably increased

Nc1ccccc1NC(=O)c1ccc(CNC(=O)OCc2cccnc2)cc1 [entinostat, reference compound]
LSD1 protein level (LSD1): slightly reduced | RCOR1 protein level (RCOR1; MCF7 cells, 14 hours): notably increased | T1/2 [1]: ~1 h

Cc1ccc(NC(=O)CCCCCC(=O)Nc2ccccc2N)cc1 [4b]
AUC [2]: 1080 nM·h | Cmax [2]: 1130 nM | T1/2 [2]: 2.76 h | Tmax [2]: 15 min

CCCCNNC(=O)c1ccc(-c2cc(C)cc(F)c2)cc1 [SR-4372]
degradation of LSD1 (LSD1): can degrade | degradation of RCOR1 (RCOR1; MCF7 cells): can degrade | degradation of HDAC1 (HDAC1): can degrade | degradation of HDAC2 (HDAC2): can degrade

CCCCNNC(=O)c1ccccc1-c1ccccc1 [SR-3460]
cytotoxic effects / BC cell growth, short-term treatment [3]: did not inhibit BC cell growth | HDACi activity (HDACs): does not inhibit HDACs

CCCCNNC(=O)c1ccc(-c2cccc(F)c2F)cc1 [SR-4370]
anticancer effects in vivo (tumor volumes, tumor weights) [4]: potent anticancer effects | cytotoxic effects / BC cell growth, short-term treatment [3]: more potent cytotoxic effects | downregulation of LSD1 under neddylation or proteasome inhibition (LSD1; [9]): completely reversed | degradation of LSD1 (LSD1): can degrade | LSD1 protein level (LSD1): potent and dose-dependent degradation | downregulation of RCOR1 under neddylation or proteasome inhibition (RCOR1; [9]): completely reversed | degradation of RCOR1 (RCOR1; MCF7 cells): can degrade | DC50 (RCOR1; MCF7 cells, 14 hours, read-out: DC50 (concentration at which 50% of the target protein is degraded) for RCOR1): < 100 nM | RCOR1 protein level (RCOR1; MCF7 cells, 14 hours): potent and dose-dependent degradation | RCOR3 protein level (RCOR3): largely without affecting | MTA2 protein level (MTA2): only moderately reduced at a higher concentration | LSD2 protein level (LSD2): largely unaffected | RBBP4 protein level (RBBP4): largely unaffected | HDAC8 protein level (HDAC8): did not affect | RCOR2 protein level (RCOR2): largely without affecting | HDAC3 protein level (HDAC3): did not affect | cytotoxic effects, long-term treatment (BC cell lines): more potent cytotoxic effects | degradation of HDAC1 (HDAC1): can degrade | HDAC1 protein level (HDAC1; [10]): potent and dose-dependent degradation; also recorded: only moderately reduced at a higher concentration | degradation of HDAC2 (HDAC2): can degrade | HDAC2 protein level (HDAC2; [10]): potent and dose-dependent degradation; also recorded: only moderately reduced at a higher concentration | ALP [5, 11]: 49.5 (±8.78) U/L | ALT [5, 11]: 71.60 (±14.06) U/L | BUN [5, 11]: 22.0 (±3.16) mg/dL | Calcium [5, 11]: 8.45 (±0.85) mg/dL | Chloride [5, 11]: 110.0 (±2.17) mmol/L | Cholesterol [5, 11]: 113.0 (±15.92) mg/dL | Creatinine [5, 11]: 0.1 (±0.044) mg/dL | Glucose [5, 11]: 221.17 (±60.6) mg/dL | Phosphorus [5, 11]: 9.73 (±2.69) mg/dL | Potassium [5, 11]: 8.75 (±1.82) mmol/L | Sodium [5, 11]: 147.33 (±1.51) mmol/L | Total bilirubin [5, 11]: 0.25 (±0.054) mg/dL | Total protein [5, 11]: 4.95 (±0.217) g/dL | liver or kidney toxicities [5, 12]: no signs of liver or kidney toxicities | serum concentrations of various analytes versus reference ranges [5, 12]: within reference ranges | tolerability ([6]; SR-4370 up to 50 mg/kg, mice, in vivo efficacy study): completely tolerated | body weights during the treatment period ([6]; tumor-bearing mice, BALB/c mice with EMT6 tumors, 50 mg/kg intraperitoneal, 50 mg/kg): not affected; also recorded: safe as judged by body weights

O=C(CCCCCCC(=O)Nc1ccccc1)NO [vorinostat, reference compound]
LSD1 protein level (LSD1): slightly reduced | RCOR1 protein level (RCOR1; MCF7 cells, 14 hours): notably increased

CCCCNNC(=O)c1ccc(-c2cncnc2)cc1 [SR-4369]
degradation of LSD1 (LSD1): can degrade | degradation of RCOR1 (RCOR1; MCF7 cells): can degrade | degradation of HDAC1 (HDAC1): can degrade | degradation of HDAC2 (HDAC2): can degrade

CCCCNNC(=O)c1ccc(-c2ccccc2)cc1 [SR-3558]
degradation of LSD1 (LSD1): can degrade | degradation of RCOR1 (RCOR1; MCF7 cells): can degrade | degradation of HDAC1 (HDAC1): can degrade | degradation of HDAC2 (HDAC2): can degrade

CCCCNNC(=O)c1ccc(Br)cc1 [UF010]
HDACi activity (HDACs): potent HDACi | degradation of LSD1 (LSD1): completely inactive | degradation of RCOR1 (RCOR1; MCF7 cells): completely inactive | in vivo tolerability [7]: completely tolerated without any signs of toxicity or loss of body weight | degradation of HDAC1 (HDAC1): completely inactive | degradation of HDAC2 (HDAC2): completely inactive | oral bioavailability [8]: bioavailable orally | AUC ([8]; plasma): 6.07 µM·h | Cmax ([8]; plasma): 5.95 µM | T1/2 ([8]; plasma): 1.24 h | Tmax ([8]; plasma): 15 min
